For orientation: pEC50 means −log10 of the EC50, conventionally taken in molar units.

pEC50: −log10 of the molar value.

This note sets out measurements from patent publication US20220162191A1, “SMALL MOLECULE MODULATORS OF IL-17” (LEO PHARMA A/S, priority 2019, published 2022).

This assay concerns the target T1, human IL-17AA (Homo sapiens, UniProt Q16552).
T1 construct: host or cells: HEK (human embryonic kidney) cells
T1 sequence (Q16552 24-155) 1: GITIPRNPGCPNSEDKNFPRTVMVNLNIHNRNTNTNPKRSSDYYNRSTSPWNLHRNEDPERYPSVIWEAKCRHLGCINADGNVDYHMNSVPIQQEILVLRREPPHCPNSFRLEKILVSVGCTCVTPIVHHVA
T1 sequence (Q16552 24-155) 2: T1 sequence (Q16552 24-155) 1
Description: IL-8 release assay in human epithelial keratinocytes adult (HEKa). It is filed as cell-based. To be noted: 3 ng/ml human IL-17AA + 10 ng/ml human TNFalpha, 68-72 h, IL-8 by HTRF, read-out: Rel EC50 L-8 release assay. The method in brief:
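IL-8 secretion, quantified by HTRF (665/620 nm) as percent of controls, served as the readout after 68–72 h culture of HEKa cells with compound plus IL-17AA (3 ng/ml final) and TNF-alpha (10 ng/ml final). Four-parameter logistic curves gave relative IC50 and Emax.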
Regarding `Cn1cncc1-c1ccc(NC(=O)C(Cc2cc(-c3ccnc(N4CC5(CNC5)C4)c3)ccc2Cl)NC(=O)c2ccnn2C)cc1` (centres unmarked) [Example 194, N-[1-[[2-chloro-5-[2-(2,6-diazaspiro[3.3]heptan-6-yl)-4-pyridyl]phenyl]methyl]-2-[4-(3-methylimidazol-4-yl)anilino]-2-oxo-ethyl]-2-methyl-pyrazole-3-carboxamide], the pEC50 was 6.00 to 7.00.

For the molecule `Cn1cncc1-c1ccc(NC(=O)C(Cc2cc(-c3ccnc(N4CC(N)C4)c3)ccc2Cl)NC(=O)c2ccnn2C)cc1` (centres unmarked) [Example 195, N-[1-[[5-[2-(3-aminoazetidin-1-yl)-4-pyridyl]-2-chloro-phenyl]methyl]-2-[4-(3-methylimidazol-4-yl)anilino]-2-oxo-ethyl]-2-methyl-pyrazole-3-carboxamide], the negative logarithm of the EC50 (pEC50) is 6.00 to 7.00.

With `CNC1CN(c2cc(-c3ccc(Cl)c(CC(NC(=O)c4ccnn4C)C(=O)Nc4ccc(-c5cncn5C)cc4)c3)ccn2)C1` (centres unmarked) [Example 196, N-[1-[[2-chloro-5-[2-[3-(methylamino)azetidin-1-yl]-4-pyridyl]phenyl]methyl]-2-[4-(3-methylimidazol-4-yl)anilino]-2-oxo-ethyl]-2-methyl-pyrazole-3-carboxamide], the pEC50 was 6.00 to 7.00.

For the molecule `Cn1cncc1-c1ccc(NC(=O)C(Cc2cc(-c3ccnc(N4CCNCC4)c3)ccc2Cl)NC(=O)c2ccnn2C)cc1` (centres unmarked) [Example 197, N-[1-[[2-chloro-5-(2-piperazin-1-yl-4-pyridyl)phenyl]methyl]-2-[4-(3-methylimidazol-4-yl)anilino]-2-oxo-ethyl]-2-methyl-pyrazole-3-carboxamide], the pEC50 is 6.00 to 7.00.

Take `CCc1cc(-c2ccc(Cl)c(CC(NC(=O)c3ccnn3C)C(=O)Nc3ccc(-c4nncn4C)cc3)c2)ccc1C#N` (centres unmarked) [Example 198, N-[1-[[2-chloro-5-(4-cyano-3-ethyl-phenyl)phenyl]methyl]-2-[4-(4-methyl-1,2,4-triazol-3-yl)anilino]-2-oxo-ethyl]-2-methyl-pyrazole-3-carboxamide]: the pEC50 is below 6.00.

With `Cc1cc(-c2ccc(Cl)c(CC(NC(=O)c3ccnn3C)C(=O)Nc3ccc(-c4nncn4C)cc3)c2)cc(C)c1C#N` (centres unmarked) [Example 199, N-[1-[[2-chloro-5-(4-cyano-3,5-dimethyl-phenyl)phenyl]methyl]-2-[4-(4-methyl-1,2,4-triazol-3-yl)anilino]-2-oxo-ethyl]-2-methyl-pyrazole-3-carboxamide], the pEC50 was 6.00 to 7.00.

In the case of `Cc1n[nH]c(C)c1-c1ccc(NC(=O)[C@H](Cc2cc(-c3cnn(C(C)(C)C)c3)ccc2Cl)NC(=O)c2ccnn2C)cc1` [Example 200, N-[(1S)-1-[[5-(1-tert-butylpyrazol-4-yl)-2-chloro-phenyl]methyl]-2-[4-(3,5-dimethyl-1H-pyrazol-4-yl)anilino]-2-oxo-ethyl]-2-methyl-pyrazole-3-carboxamide], the pEC50 was above 7.00.

As to `Cc1ncn(C)c1-c1ccc(NC(=O)[C@H](Cc2cc(-c3ccc(=O)n(C(C)C)c3)ccc2Cl)NC(=O)OC2CC2)cc1` [Example 201, cyclopropyl N-[(1S)-1-[[2-chloro-5-(1-isopropyl-6-oxo-3-pyridyl)phenyl]methyl]-2-[4-(3,5-dimethylimidazol-4-yl)anilino]-2-oxo-ethyl]carbamate], the pEC50 is 6.00 to 7.00.

Regarding `CC(C)c1cc(-c2ccc(Cl)c(CC(NC(=O)c3ccnn3C)C(=O)Nc3ccc(-c4nncn4C)cc3)c2)ccc1C#N` (centres unmarked) [Example 202, N-[1-[[2-chloro-5-(4-cyano-3-isopropyl-phenyl)phenyl]methyl]-2-[4-(4-methyl-1,2,4-triazol-3-yl)anilino]-2-oxo-ethyl]-2-methyl-pyrazole-3-carboxamide], the pEC50 is 6.00 to 7.00.

Regarding `Cc1ncn(C)c1-c1ccc(NC(=O)[C@H](Cc2cc(-c3cccc(C(C)(C)N)c3)ccc2Cl)NC(=O)c2ccnn2C)cc1` [Example 203, N-[(1S)-1-[[5-[3-(1-amino-1-methyl-ethyl)phenyl]-2-chloro-phenyl]methyl]-2-[4-(3,5-dimethylimidazol-4-yl)anilino]-2-oxo-ethyl]-2-methyl-pyrazole-3-carboxamide], the pEC50 is 6.00 to 7.00.

Turning to `Cc1ncn(C)c1-c1ccc(NC(=O)[C@H](Cc2cc(-c3cnn(C(C)(C)C#N)c3)ccc2Cl)NC(=O)c2ccnn2C)cc1` [Example 204, N-[(1S)-1-[[2-chloro-5-[1-(1-cyano-1-methyl-ethyl)pyrazol-4-yl]phenyl]methyl]-2-[4-(3,5-dimethylimidazol-4-yl)anilino]-2-oxo-ethyl]-2-methyl-pyrazole-3-carboxamide], the pEC50 was 6.00 to 7.00.

With `CC(C)c1cc(-c2ccc(Cl)c(C[C@H](NC(=O)c3ccnn3C)C(=O)Nc3ccc(-c4cncn4C)cc3)c2)ncn1` [Example 205, N-[(1S)-1-[[2-chloro-5-(6-isopropylpyrimidin-4-yl)phenyl]methyl]-2-[4-(3-methylimidazol-4-yl)anilino]-2-oxo-ethyl]-2-methyl-pyrazole-3-carboxamide], the pEC50 is 6.00 to 7.00.

For `CN1CCN(c2cc(-c3ccc(Cl)c(C[C@H](NC(=O)c4ccnn4C)C(=O)Nc4ccc(-c5cncn5C)cc4)c3)ccn2)CC1` [Example 206, N-[(1S)-1-[[2-chloro-5-[2-(4-methylpiperazin-1-yl)-4-pyridyl]phenyl]methyl]-2-[4-(3-methylimidazol-4-yl)anilino]-2-oxo-ethyl]-2-methyl-pyrazole-3-carboxamide], the pEC50 is 6.00 to 7.00.

With `C[C@@H]1CNCCN1c1cc(-c2ccc(Cl)c(C[C@H](NC(=O)c3ccnn3C)C(=O)Nc3ccc(-c4cncn4C)cc3)c2)ccn1` [Example 207, N-[(1S)-1-[[2-chloro-5-[2-[(2R)-2-methylpiperazin-1-yl]-4-pyridyl]phenyl]methyl]-2-[4-(3-methylimidazol-4-yl)anilino]-2-oxo-ethyl]-2-methyl-pyrazole-3-carboxamide], the pEC50 is above 7.00.

With `C[C@H]1CNCCN1c1cc(-c2ccc(Cl)c(C[C@H](NC(=O)c3ccnn3C)C(=O)Nc3ccc(-c4cncn4C)cc3)c2)ccn1` [Example 208, N-[(1S)-1-[[2-chloro-5-[2-[(2S)-2-methylpiperazin-1-yl]-4-pyridyl]phenyl]methyl]-2-[4-(3-methylimidazol-4-yl)anilino]-2-oxo-ethyl]-2-methyl-pyrazole-3-carboxamide], the pEC50 was 6.00 to 7.00.

On to `C[C@H]1CN(c2cc(-c3ccc(Cl)c(C[C@H](NC(=O)c4ccnn4C)C(=O)Nc4ccc(-c5cncn5C)cc4)c3)ccn2)CCN1` [Example 209, N-[(1S)-1-[[2-chloro-5-[2-[(3S)-3-methylpiperazin-1-yl]-4-pyridyl]phenyl]methyl]-2-[4-(3-methylimidazol-4-yl)anilino]-2-oxo-ethyl]-2-methyl-pyrazole-3-carboxamide], for which the pEC50 is 6.00 to 7.00.

For the molecule `C[C@@H]1CN(c2cc(-c3ccc(Cl)c(C[C@H](NC(=O)c4ccnn4C)C(=O)Nc4ccc(-c5cncn5C)cc4)c3)ccn2)CCN1` [Example 210, N-[(1S)-1-[[2-chloro-5-[2-[(3R)-3-methylpiperazin-1-yl]-4-pyridyl]phenyl]methyl]-2-[4-(3-methylimidazol-4-yl)anilino]-2-oxo-ethyl]-2-methyl-pyrazole-3-carboxamide], the pEC50 is 6.00 to 7.00.

With `Cc1ncn(C)c1-c1ccc(NC(=O)[C@H](Cc2cc(-c3ccnc(N4CCN(C)CC4)c3)ccc2Cl)NC(=O)OC2CC2)cc1` [Example 211, cyclopropyl N-[(1S)-1-[[2-chloro-5-[2-(4-methylpiperazin-1-yl)-4-pyridyl]phenyl]methyl]-2-[4-(3,5-dimethylimidazol-4-yl)anilino]-2-oxo-ethyl]carbamate], the pEC50 was 6.00 to 7.00.

Regarding `CC(C)Cn1cc(-c2ccc(Cl)c(C[C@H](NC(=O)c3ccnn3C)C(=O)Nc3ccc(-c4cncn4C)cc3)c2)nn1` [Example 212, N-[(1S)-1-[[2-chloro-5-(1-isobutyltriazol-4-yl)phenyl]methyl]-2-[4-(3-methylimidazol-4-yl)anilino]-2-oxo-ethyl]-2-methyl-pyrazole-3-carboxamide], the negative-log EC50 (pEC50) was 6.00 to 7.00.

`Cc1ncn(C)c1-c1ccc(NC(=O)[C@H](Cc2cc(-c3ccnc(N4CCN(C)CC4)c3)ccc2Cl)NC(=O)c2ccnn2C)cc1` [Example 213, N-[(1S)-1-[[2-chloro-5-[2-(4-methylpiperazin-1-yl)-4-pyridyl]phenyl]methyl]-2-[4-(3,5-dimethylimidazol-4-yl)anilino]-2-oxo-ethyl]-2-methyl-pyrazole-3-carboxamide]: the pEC50 was 6.00 to 7.00.

Take `CC(C)Cn1cc(-c2ccc(Cl)c(C[C@H](NC(=O)OC3CC3)C(=O)Nc3ccc(-c4cncn4C)cc3)c2)nn1` [Example 214, cyclopropyl N-[(1S)-1-[[2-chloro-5-(1-isobutyltriazol-4-yl)phenyl]methyl]-2-[4-(3-methylimidazol-4-yl)anilino]-2-oxo-ethyl]carbamate]: the pEC50 was below 6.00.

With `Cn1cncc1-c1ccc(NC(=O)[C@H](Cc2cc(-c3cccc([C@H]4COCCN4)c3)ccc2Cl)NC(=O)c2ccnn2C)cc1` [Example 215, N-[(1S)-1-[[2-chloro-5-[3-[(3S)-morpholin-3-yl]phenyl]phenyl]methyl]-2-[4-(3-methylimidazol-4-yl)anilino]-2-oxo-ethyl]-2-methyl-pyrazole-3-carboxamide], the pEC50 is 6.00 to 7.00.

`Cn1cncc1-c1ccc(NC(=O)[C@H](Cc2cc(-c3cccc([C@@H]4COCCN4)c3)ccc2Cl)NC(=O)c2ccnn2C)cc1` [Example 216, N-[(1S)-1-[[2-chloro-5-[3-[(3R)-morpholin-3-yl]phenyl]phenyl]methyl]-2-[4-(3-methylimidazol-4-yl)anilino]-2-oxo-ethyl]-2-methyl-pyrazole-3-carboxamide]: the pEC50 is 6.00 to 7.00.
